Data: BindingDB's records for doi:10.1021/jm021089h (Institute of Biomedical Chemistry of Russian Academy of …, 2003)

target: Angiotensin-converting enzyme (Bos taurus) (UniProt P12820); test: Inhibitory activity against Angiotensin I converting enzyme (ACE) from bovine kidney
Sequence (P12820 whole entry, looked up): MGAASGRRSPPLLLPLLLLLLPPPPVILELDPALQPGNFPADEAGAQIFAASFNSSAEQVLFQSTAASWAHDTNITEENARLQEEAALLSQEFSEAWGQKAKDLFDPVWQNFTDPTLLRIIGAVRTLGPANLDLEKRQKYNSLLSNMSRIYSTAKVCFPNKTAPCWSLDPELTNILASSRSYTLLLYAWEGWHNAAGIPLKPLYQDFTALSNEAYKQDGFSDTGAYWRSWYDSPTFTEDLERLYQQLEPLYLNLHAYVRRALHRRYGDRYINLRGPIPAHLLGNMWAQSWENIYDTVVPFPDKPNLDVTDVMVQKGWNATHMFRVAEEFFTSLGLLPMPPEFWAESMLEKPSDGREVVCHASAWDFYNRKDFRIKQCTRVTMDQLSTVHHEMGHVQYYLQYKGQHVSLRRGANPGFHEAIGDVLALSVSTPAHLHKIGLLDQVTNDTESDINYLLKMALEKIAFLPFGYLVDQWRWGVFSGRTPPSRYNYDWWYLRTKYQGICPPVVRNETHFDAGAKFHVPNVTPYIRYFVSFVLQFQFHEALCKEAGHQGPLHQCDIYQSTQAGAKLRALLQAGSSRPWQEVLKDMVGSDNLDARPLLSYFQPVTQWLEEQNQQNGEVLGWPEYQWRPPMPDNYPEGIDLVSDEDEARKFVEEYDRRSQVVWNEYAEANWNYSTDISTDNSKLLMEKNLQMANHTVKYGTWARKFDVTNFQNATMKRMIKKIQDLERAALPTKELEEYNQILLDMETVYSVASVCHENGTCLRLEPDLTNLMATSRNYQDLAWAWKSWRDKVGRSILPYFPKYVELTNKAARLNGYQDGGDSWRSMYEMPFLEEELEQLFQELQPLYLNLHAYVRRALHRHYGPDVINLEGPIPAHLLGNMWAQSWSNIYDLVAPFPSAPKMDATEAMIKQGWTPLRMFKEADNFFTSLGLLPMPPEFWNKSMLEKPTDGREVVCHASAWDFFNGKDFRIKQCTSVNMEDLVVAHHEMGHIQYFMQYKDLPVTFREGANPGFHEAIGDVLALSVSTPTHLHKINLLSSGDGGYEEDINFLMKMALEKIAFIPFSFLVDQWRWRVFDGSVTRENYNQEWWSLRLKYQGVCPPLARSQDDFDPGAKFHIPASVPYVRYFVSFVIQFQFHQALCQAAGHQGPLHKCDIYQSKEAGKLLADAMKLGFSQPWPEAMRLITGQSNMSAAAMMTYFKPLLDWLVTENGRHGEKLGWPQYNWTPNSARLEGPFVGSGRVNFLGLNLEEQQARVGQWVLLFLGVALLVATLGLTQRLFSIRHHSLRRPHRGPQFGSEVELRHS

First: CC1CCCC(C(=O)O)N1C(=O)CCS (stereo not drawn) [1-(3-Mercapto-propionyl)-6-methyl-piperidine-2-carboxylic acid]
Second: CC(=O)SCC(C)C(=O)Nc1ccccc1 (stereo not drawn) [Thioacetic acid S-(2-phenylcarbamoyl-propyl) ester]
The IC50 of the first is 300-fold lower: 1 nM for the first, 300 nM for the second. The first is the more potent here.

`CC(=O)SCC(C)C(=O)NCc1ccccc1` (stereo not drawn) [Thioacetic acid S-(2-benzylcarbamoyl-propyl) ester] showed an IC50 of 500000 nM.
